Reference: paper PMC9973256, “A Cysteine Pair Controls Flavin Reduction by Extracellular Cytochromes during Anoxic/Oxic Environmental Transitions” (mBio, 2023)

Key:
Type in all cases: binding
MtrCsol (soluble MtrC) [1] = target: T1, MtrCsol (soluble MtrC) (Shewanella oneidensis, UniProt Q8EG34, C453S); assay: […] NMR titration of FMN; conditions: oxidized protein; 20 mM potassium phosphate pH 7.6, 100 mM KCl, 25 °C; slow exchange
T1 construct: soluble form; lipid anchor site and signal peptide replaced by MtrB signal peptide; C-terminal StrepTactin tag; expressed in S. oneidensis delta-mtrC (LS661); decaheme

MtrCsol (soluble MtrC) [2] = target: T2, MtrCsol (soluble MtrC) (Shewanella oneidensis, UniProt Q8EG34, C453A); assay: copurification through anaerobic PD10 size exclusion column, flavin fluorescence; conditions: 50 uM sodium dithionite (reduced FMN and heme), also with 1 mM DTT, no copurification without reductant
T2 construct: soluble form; lipid anchor site and signal peptide replaced by MtrB signal peptide; C-terminal StrepTactin tag; expressed in S. oneidensis delta-mtrC (LS661); decaheme

MtrCsol (soluble MtrC) [3] = target: T3, MtrCsol (soluble MtrC) (Shewanella oneidensis, UniProt Q8EG34); assay: as above; conditions: 1 mM DTT (disulfide reduced), no copurification without DTT or with 50 uM dithionite only
T3 construct: soluble form; lipid anchor site and signal peptide replaced by MtrB signal peptide; C-terminal StrepTactin tag; expressed in S. oneidensis delta-mtrC (LS661); decaheme
T3 sequence (Q8EG34 26-671): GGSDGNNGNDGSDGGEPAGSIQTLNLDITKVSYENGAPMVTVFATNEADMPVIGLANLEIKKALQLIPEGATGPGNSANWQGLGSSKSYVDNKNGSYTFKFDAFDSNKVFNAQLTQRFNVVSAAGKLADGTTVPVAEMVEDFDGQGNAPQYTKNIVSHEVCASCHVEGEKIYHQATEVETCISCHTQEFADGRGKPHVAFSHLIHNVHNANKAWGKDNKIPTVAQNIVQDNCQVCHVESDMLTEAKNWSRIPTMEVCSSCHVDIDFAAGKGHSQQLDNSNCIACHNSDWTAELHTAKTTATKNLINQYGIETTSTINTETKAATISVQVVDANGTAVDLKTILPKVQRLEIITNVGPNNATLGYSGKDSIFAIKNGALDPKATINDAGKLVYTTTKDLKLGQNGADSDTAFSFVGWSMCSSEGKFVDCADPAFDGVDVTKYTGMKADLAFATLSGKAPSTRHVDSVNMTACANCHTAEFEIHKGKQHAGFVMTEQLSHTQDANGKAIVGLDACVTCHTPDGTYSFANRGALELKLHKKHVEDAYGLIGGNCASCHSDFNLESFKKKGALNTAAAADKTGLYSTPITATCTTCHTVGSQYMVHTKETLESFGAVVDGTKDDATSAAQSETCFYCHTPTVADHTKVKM

T1 sequence (Q8EG34 entry or part of it C453S): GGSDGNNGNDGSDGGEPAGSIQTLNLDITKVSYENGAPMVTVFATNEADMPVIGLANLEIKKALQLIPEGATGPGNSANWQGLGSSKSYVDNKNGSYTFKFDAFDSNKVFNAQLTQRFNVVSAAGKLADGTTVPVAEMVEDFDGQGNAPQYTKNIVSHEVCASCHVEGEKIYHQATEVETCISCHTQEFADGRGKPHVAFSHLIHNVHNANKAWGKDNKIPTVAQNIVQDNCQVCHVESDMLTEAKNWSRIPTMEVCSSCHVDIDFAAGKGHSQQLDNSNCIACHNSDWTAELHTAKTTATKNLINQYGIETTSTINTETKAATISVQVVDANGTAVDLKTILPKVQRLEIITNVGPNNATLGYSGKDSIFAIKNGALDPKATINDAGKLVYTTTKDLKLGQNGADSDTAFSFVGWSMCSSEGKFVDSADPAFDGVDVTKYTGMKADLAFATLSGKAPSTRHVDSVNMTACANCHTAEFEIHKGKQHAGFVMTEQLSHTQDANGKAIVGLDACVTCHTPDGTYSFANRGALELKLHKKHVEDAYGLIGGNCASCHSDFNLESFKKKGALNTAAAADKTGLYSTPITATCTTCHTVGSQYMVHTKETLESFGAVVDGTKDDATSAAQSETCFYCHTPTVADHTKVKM
T2 sequence (Q8EG34 entry or part of it C453A): as the sequence (Q8EG34 entry or part of it C453S) above, with S428A counted along it

For Cc1cc2nc3c(=O)[nH]c(=O)nc-3n(C[C@H](O)[C@H](O)[C@H](O)COP(=O)(O)O)c2cc1C [FMN], the “31P NMR titration of FMN” value (MtrCsol (soluble MtrC) [1]) was “signal of FMN upon exposure to oxidized MtrCC453Ssol was monitored”, the “copurification through anaerobic PD10 size exclusion column, flavin fluorescence” value (MtrCsol (soluble MtrC) [2]) was “revealed copurification of FMN with MtrCC453Asol but not MtrCsol” and the “copurification through anaerobic PD10 size exclusion column, flavin fluorescence” value (MtrCsol (soluble MtrC) [3]) was “showing that MtrCC453Asol would form a similar FMN complex to MtrCsol in the presence of DTT”.
